Experimental findings from ChEMBL document CHEMBL3860110, “First Structure-Activity Relationship of 17β-Hydroxysteroid Dehydrogenase Type 14 Nonsteroidal Inhibitors and Crystal Structures in Complex with the Enzyme” (J Med Chem, 2016) are described below.

The structures appear in SMILES notation.

A short description of series [1]: Dissociation constant, pKa of the compound at OH/C-ring. Format: physicochemical.
The target of series [2] is T1, 17-beta-hydroxysteroid dehydrogenase 14 (Homo sapiens) (UniProt Q9BPX1).
T1 sequence (whole entry): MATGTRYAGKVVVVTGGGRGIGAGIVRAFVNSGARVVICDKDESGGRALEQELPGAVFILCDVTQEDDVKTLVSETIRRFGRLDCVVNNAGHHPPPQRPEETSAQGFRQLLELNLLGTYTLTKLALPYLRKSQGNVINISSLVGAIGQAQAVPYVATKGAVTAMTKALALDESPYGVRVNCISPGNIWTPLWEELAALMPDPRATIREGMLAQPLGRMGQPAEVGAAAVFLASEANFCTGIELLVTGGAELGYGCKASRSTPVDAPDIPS
Nature of the series: Inhibition of N-terminal 6His-tagged human HSD17B14 expressed in Escherichia coli BL21 (DE3) pLysS at 22.2 uM using E2 substrate and NAD+ incubated for 2 hrs using purified enzyme by fluorimetric assay.

The target of series [3] is T2, 17-beta-hydroxysteroid dehydrogenase type 2 (Homo sapiens, UniProt P37059).
T2 sequence (P37059 whole entry): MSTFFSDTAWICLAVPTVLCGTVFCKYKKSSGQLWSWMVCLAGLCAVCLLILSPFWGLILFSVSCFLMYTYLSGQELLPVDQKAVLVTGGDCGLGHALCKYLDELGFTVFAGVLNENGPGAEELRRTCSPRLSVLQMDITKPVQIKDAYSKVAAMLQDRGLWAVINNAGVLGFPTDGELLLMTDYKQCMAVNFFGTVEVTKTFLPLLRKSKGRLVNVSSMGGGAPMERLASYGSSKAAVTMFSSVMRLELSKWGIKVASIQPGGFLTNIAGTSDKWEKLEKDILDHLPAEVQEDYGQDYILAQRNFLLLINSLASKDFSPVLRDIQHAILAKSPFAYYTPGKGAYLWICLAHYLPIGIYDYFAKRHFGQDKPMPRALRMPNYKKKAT
Put plainly: Inhibition of purified human placental microsomal 17beta-HSD2 using [3H]-E2 substrate and NAD+ by HPLC based radioactive […] assay.

Take `O=C(c1cccc(O)c1)c1cccc(-c2ccc(O)c(F)c2)n1`: the pKa (usually the negative logarithm of the acid dissociation constant) in series [1] came to 8.8.

Turning to `COc1ccc(-c2ccc(C(=O)c3ccc(F)c(OC)c3)nc2)cc1F`, the inhibition (commonly the percentage by which the read-out fell short of the control) in series [2] came to 57%.

Take `Cc1cc(-c2ccc(C(=O)c3ccc(F)c(O)c3)cc2)ccc1O`: the IC50 (as a rule, the concentration that inhibits the measured activity by half) in series [3] was determined as 40 nM.

For the compound `O=C(c1ccc(F)c(O)c1)c1cccc(-c2ccc(O)c(F)c2)n1`, the pKa in series [1] worked out at 7.8.
